13 compounds from patent US6861390B2, “Derivatives of UK-2A” (priority 2001, dated 2005) can be followed below.

SMILES strings stand for the structures. Bounds are passed on as bounds.

Test [1] relates to Rhizoctonia solani (RHIZSO). Description: microbe, parasite or virus in culture. Format: cell-based. The following applies: read-out: T10 RHIZSO in vitro Growth Inhibition.
The subject of a further test is Ustilago maydis (USTIMA). The experiment in a line: microbe, parasite or virus in culture. The format is cell-based. As to conditions: Mycosarcoma maydis, read-out: T12 USTIMA in vitro Growth Inhibition.
In test [2] the test system is Magnaporthe grisea (Pyricularia oryzae, PYRIOR). The experiment in a line: microbe, parasite or virus in culture. As to conditions: read-out: T9 PYRIOR in vitro Growth Inhibition. Format: cell-based.
Test [3] concerns Phytophthora infestans (PHYTIN). Description: microbe, parasite or virus in culture. As to conditions: in Secale cereale, read-out: T8 PHYTIN in vitro Growth Inhibition. The format is cell-based.
The subject of test [4] is Septoria tritici (SEPTTR). The experiment in a line: Leaf Blotch of Wheat, whole plant 24 Hour Protectant (T6). The following applies: Zymoseptoria tritici; wheat (cultivar Monon), sprayed at 100 ppm, inoculated after 24 hours; read-out: T6 SEPTTR in vivo 1 Day Protectant, control of fungal infection.
Test [5] relates to Stagonospora nodorum (Leptosphaeria nodorum, LEPTNO). Description: microbe, parasite or virus in culture. The format is cell-based. The following applies: Parastagonospora nodorum, read-out: T7 LEPTNO in vitro Growth Inhibition.
In test [6] the test system is Mycosphaerella graminicola (Septoria tritici, SEPTTR). Description: microbe, parasite or virus in culture. As to conditions: Zymoseptoria tritici, read-out: T11 SEPTTR in vitro Growth Inhibition. The format is cell-based.
Test [7] deals with Erysiphe graminis (ERYSGT). The experiment in a line: Powdery Mildew of Wheat, whole plant 24 Hour Protectant (T1). The following applies: Blumeria graminis, in Triticum aestivum, read-out: T1 ERYSGT in vivo 1 Day Protectant, control of fungal infection.
Test [8] deals with Puccinia recondita (PUCCRT). Description: Brown Rust of Wheat, whole plant 24 Hour Protectant (T5). The following applies: wheat (cultivar Yuma), sprayed at 100 ppm, inoculated after 24 hours, read-out: T5 PUCCRT in vivo 1 Day Protectant, control of fungal infection.
The subject of test [9] is Leptosphaeria nodorum (LEPTNO). Description: Glume Blotch of Wheat, whole plant 24 Hour Protectant (T2). As to conditions: Parastagonospora nodorum; wheat (cultivar Yuma), sprayed at 100 ppm, inoculated after 24 hours; read-out: T2 LEPTNO in vivo 1 Day Protectant, control of fungal infection.
The subject of test [10] is Phytophthora infestans (PHYTIN). Description: whole plant or invertebrate. The following applies: in Solanum lycopersicum, 24 h, read-out: T3 PHYTIN in vivo 1 Day Protectant, control of fungal infection.

Broadly, the inhibition is the share of the control response that was lost under treatment. With `COCC(C)OCOc1c(OC)ccnc1C(=O)N[C@H]1COC(=O)[C@H](Cc2ccccc2)[C@@H](OC(=O)C(C)C)[C@H](C)OC1=O` (some centres unmarked) [Compound 12], the inhibition at 25 ppm in test [1] was over 80%; with Ustilago maydis (USTIMA), over 80%; in test [2] it was over 80%; in [3], under 80%; in [5], over 80%; in test [6], over 80%. In addition, the pest or weed control at 100 ppm in [4] is 75 to 100%; in [7] it was 25 to 74%; in [8], 75 to 100%; in test [9], 75 to 100%; in test [10] it was under 25%.

With `COc1ccnc(C(=O)N[C@H]2COC(=O)[C@H](Cc3ccccc3)[C@@H](OC(=O)C(C)C)[C@H](C)OC2=O)c1OCOCCOC(C)=O` [Compound 17], the inhibition at 25 ppm in test [1] is over 80%; in the test on Ustilago maydis (USTIMA) it was under 80%; in [2] it was under 80%; in test [3] it was under 80%; in [5], over 80%; in test [6], over 80%. Also, the pest or weed control at 100 ppm in [4] is 75 to 100%; in [7], under 25%; in [8], 75 to 100%; in test [9] it was 75 to 100%; in [10], under 25%.

`CCC(=O)OCOc1c(OC)ccnc1C(=O)N[C@H]1COC(=O)[C@H](Cc2ccccc2)[C@@H](OC(=O)C(C)C)[C@H](C)OC1=O` [Compound 21]: the inhibition at 25 ppm in [1] was under 80%; in the test with Ustilago maydis (USTIMA), under 80%; in test [2], over 80%; in test [3], under 80%; in test [5] it was over 80%; in test [6], over 80%. Also, the pest or weed control at 100 ppm in test [4] was 75 to 100%; in [7], 25 to 74%; in test [8], 75 to 100%; in test [9] it was 75 to 100%; in test [10], under 25%.

On to `COCC(=O)OCOc1c(OC)ccnc1C(=O)N[C@H]1COC(=O)[C@H](Cc2ccccc2)[C@@H](OC(=O)C(C)C)[C@H](C)OC1=O` [Compound 30], for which the inhibition at 25 ppm in test [1] was over 80%; in the test with Ustilago maydis (USTIMA) it was over 80%; in test [2], over 80%; in test [3] it was under 80%; in [5], over 80%; in [6] it was under 80%. Further, the pest or weed control at 100 ppm was 75 to 100% in test [4]; 75 to 100% in test [7]; 75 to 100% in test [8]; 75 to 100% in test [9]; under 25% in test [10].

As for `COC(=O)CCC(=O)OCOc1c(OC)ccnc1C(=O)N[C@H]1COC(=O)[C@H](Cc2ccccc2)[C@@H](OC(=O)C(C)C)[C@H](C)OC1=O` [Compound 32], the inhibition at 25 ppm in [1] is under 80%; in the test with Ustilago maydis (USTIMA), under 80%; in test [2], over 80%; in test [3], under 80%; in test [5], over 80%; in test [6], under 80%. For the same compound, the pest or weed control at 100 ppm is 75 to 100% in test [4]; 25 to 74% in test [7]; 75 to 100% in test [8]; 75 to 100% in [9]; under 25% in [10].

For `COc1ccnc(C(=O)N[C@H]2COC(=O)[C@H](Cc3ccccc3)[C@@H](OC(=O)C(C)C)[C@H](C)OC2=O)c1OCOC(=O)C1CCCO1` (some centres unmarked) [Compound 34], the inhibition at 25 ppm in test [1] is under 80%; in the test with Ustilago maydis (USTIMA) it was under 80%; in test [2] it was under 80%; in [3], under 80%; in test [5], over 80%; in test [6], under 80%. In addition, the pest or weed control at 100 ppm was 75 to 100% in [4]; 25 to 74% in test [7]; 75 to 100% in test [8]; 75 to 100% in [9]; under 25% in test [10].

In the case of `CCCOCC(=O)OCOc1c(OC)ccnc1C(=O)N[C@H]1COC(=O)[C@H](Cc2ccccc2)[C@@H](OC(=O)C(C)C)[C@H](C)OC1=O` [Compound 35], the inhibition at 25 ppm in test [1] was over 80%; with Ustilago maydis (USTIMA), under 80%; in test [2], over 80%; in test [3], under 80%; in test [5], over 80%; in test [6] it was over 80%. For the same compound, the pest or weed control at 100 ppm in test [4] was 75 to 100%; in test [7], 25 to 74%; in test [8], 75 to 100%; in [9] it was 75 to 100%; in test [10], under 25%.

On to `COc1ccnc(C(=O)N[C@H]2COC(=O)[C@H](Cc3ccccc3)[C@@H](OC(=O)C(C)C)[C@H](C)OC2=O)c1OCOC(=O)COC(C)C` [Compound 36], for which the inhibition at 25 ppm in test [1] is under 80%; with Ustilago maydis (USTIMA), under 80%; in [2], over 80%; in test [3], under 80%; in test [5], over 80%; in test [6], over 80%. For the same compound, the pest or weed control at 100 ppm in test [4] was 75 to 100%; in test [7], under 25%; in [8] it was 75 to 100%; in test [9], 75 to 100%; in test [10], under 25%.

With `CCCCOCC(=O)OCOc1c(OC)ccnc1C(=O)N[C@H]1COC(=O)[C@H](Cc2ccccc2)[C@@H](OC(=O)C(C)C)[C@H](C)OC1=O` [Compound 37], the inhibition at 25 ppm in test [1] was under 80%; with Ustilago maydis (USTIMA), over 80%; in test [2], over 80%; in [3], under 80%; in [5] it was over 80%; in [6] it was over 80%. The pest or weed control at 100 ppm was 75 to 100% in [4]; 25 to 74% in test [7]; 75 to 100% in test [8]; 75 to 100% in [9]; under 25% in test [10].

Turning to `COc1ccnc(C(=O)N[C@H]2COC(=O)[C@H](Cc3ccccc3)[C@@H](OC(=O)C(C)C)[C@H](C)OC2=O)c1OCOC(=O)COCC(C)C` [Compound 38], the inhibition at 25 ppm in [1] is under 80%; in the test with Ustilago maydis (USTIMA), under 80%; in test [2], over 80%; in [3], under 80%; in test [5] it was over 80%; in test [6], over 80%. Moreover, the pest or weed control at 100 ppm is 75 to 100% in test [4]; 25 to 74% in test [7]; 75 to 100% in [8]; 75 to 100% in [9]; under 25% in test [10].

In the case of `CCC(C)OCC(=O)OCOc1c(OC)ccnc1C(=O)N[C@H]1COC(=O)[C@H](Cc2ccccc2)[C@@H](OC(=O)C(C)C)[C@H](C)OC1=O` (some centres unmarked) [Compound 39], the inhibition at 25 ppm in test [1] was under 80%; in the test on Ustilago maydis (USTIMA), under 80%; in [2] it was over 80%; in test [3], under 80%; in test [5] it was over 80%; in test [6], over 80%. For the same compound, the pest or weed control at 100 ppm in test [4] was 75 to 100%; in test [7], 25 to 74%; in [8], 75 to 100%; in [9], 75 to 100%; in test [10], under 25%.

Turning to `COCCOCC(=O)OCOc1c(OC)ccnc1C(=O)N[C@H]1COC(=O)[C@H](Cc2ccccc2)[C@@H](OC(=O)C(C)C)[C@H](C)OC1=O` [Compound 40], the inhibition at 25 ppm in test [1] is over 80%; with Ustilago maydis (USTIMA) it was over 80%; in test [2] it was over 80%; in test [3] it was under 80%; in test [5], over 80%; in [6], over 80%. Moreover, the pest or weed control at 100 ppm in test [4] was 75 to 100%; in test [7] it was 25 to 74%; in test [8] it was 75 to 100%; in test [9], 75 to 100%; in test [10] it was under 25%.

For the compound `COc1ccnc(C(=O)N[C@H]2COC(=O)[C@H](Cc3ccccc3)[C@@H](OC(=O)C(C)C)[C@H](C)OC2=O)c1OCOC(=O)COC1CCCC1` [Compound 41], the inhibition at 25 ppm in test [1] is under 80%; with Ustilago maydis (USTIMA), over 80%; in test [2] it was over 80%; in test [3], under 80%; in [5], over 80%; in test [6] it was over 80%. Besides, the pest or weed control at 100 ppm in test [4] was 75 to 100%; in test [7] it was 25 to 74%; in test [8], 75 to 100%; in test [9], 75 to 100%; in test [10], under 25%.
